Values of other authors, collected in patent publication US7411005B2, “Compositions and methods for increasing milk production in animals” (Van Beek Natural Science, LLC, priority 2002, dated 2008).

Settings: inactive metabolites after degradation by enzymes

Row | metabolites excreted in the urine | metabolites expired from the lungs in the form of CO2 [%] | Structure (SMILES)
1 | approx. 90% | 10 | Cc1ccc(C(C)C)c(O)c1 [isopropyl-cresol, 5-methyl-2[1-methylethyl]phenol]
2 | approx. 90% | 10 | Cc1ccc(C(C)C)cc1O [isopropyl-o-cresol, 5-isopropyl-2-methylphenol]
